Reference: patent publication US20250082931A1, “Treating Gastric Cancer Using TTFields Combined with XELOX, FOLFOX or the Individual Constituents Thereof” (Novocure GmbH, priority 2019, published 2025)

Key:
[1] = tested on: AGS cells; assay: Apoptosis analysis by Annexin V / 7AAD staining; type: cell-based; conditions: 72 h
Protocol: (§1) After 72 h of treatment the media and the cells were collected, and cytotoxicity was determined by cell counts. Cells (including cells from the media) were stained for Annexin V and 7AAD for apoptosis analysis. For the testing of the clonogenic effect, cells were seeded for colonies.
(§2) Cells were seeded on inovitro dishes and petri dishes 24 h before starting the experiments. Media containing the indicated concentration of each chemotherapy component alone or FOLFOX and control media was added to the cells and the dishes were connected to TTFields (as in SOP-BI-009) or grown in 37° C., 5% CO2 for 72 h. Each treatment included 8 repeats (8 dishes). The media was replaced every 24 h. At the end of the experiment the cells were collected, and cytotoxicity was determined by cell counts, small number of cells were seeded for colonies and the cells (including cells from the media) were stained for Annexin V and 7AAD for apoptosis analysis.
(§3) Apoptotic effect: Average of cell fraction of each marker staining (Annexin V and 7AAD) of at least 5 dishes from each treatment was calculated in Excel software. The averages from these repeats was calculated to averages and is presented in stacked bar graph using GraphPed software.

[2] = tested on: KATO III cells; assay: Clonogenic effect (colonies count); conditions: for colonies count: 72 h;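 for all read-outs here: after treatment, KATO III cells were reseeded and grown 6–14 days, then colonies were fixed, stained and counted, expressed as percent of untreated (no drug) control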
Protocol: After 72 h of treatment the media and the cells were collected, and cytotoxicity was determined by cell counts. […] For the testing of the clonogenic effect, cells were seeded for colonies.
(§4) After 6-14 days the colonies were fixed, stained and counted to determine clonogenic effect. The overall effect was calculated by multiplying the cytotoxic effect and the clonogenic effect.
Clonogenic effect: The colonies from each well were counted using ImageJ software. Average and standard deviation of colony number of at least 5 wells from each treatment were calculated in excel software. The averages from these repeats was calculated to averages and standard errors and is presented as percent from control (no drug treatment) in XY graph of points with error bars using GraphPed software. Significant was determine by 2-way ANOVA followed Multiple comparison using GraphPed software.

[3] = tested on: KATO III cells; assay: Apoptosis analysis by Annexin V / 7AAD staining; type: cell-based; conditions: for AnnV+ 7AAD+ cell fraction / AnnV+ 7AAD− cell fraction / AnnV− 7AAD+ cell fraction / AnnV− 7AAD− cell fraction: 72 h
Protocol: as §1, §2, §3

[4] = tested on: KATO III cells; assay: Overall effect (cytotoxic effect x clonogenic effect); conditions: 72 h
Protocol: as §4
Overall effect: Each colony number was multiply in the percent of cytotoxic effect of its dish and averages and standard deviations of each treatment were calculated in Excel software. […] Significant was determine by 2-way ANOVA followed Multiple comparison using GraphPed software.

[5] = 13.5 uM, + TTFields 150 kHz 1.0 V/cm
[6] = FOLFOX experiment, 0.5 uM, + TTFields 150 kHz 1.0 V/cm
[7] = FOLFOX experiment, 0.5 uM, no TTFields
[8] = 1.5 uM, + TTFields 150 kHz 1.6 V/cm
[9] = 4.5 uM, + TTFields 150 kHz 1.6 V/cm
[10] = 13.5 uM, + TTFields 150 kHz 1.6 V/cm
[11] = 40 uM, + TTFields 150 kHz 1.6 V/cm
[12] = 1.5 nM, + TTFields 150 kHz 1.6 V/cm
[13] = 4.5 nM, + TTFields 150 kHz 1.6 V/cm
[14] = 13.5 nM, + TTFields 150 kHz 1.6 V/cm
[15] = 40 nM, + TTFields 150 kHz 1.6 V/cm
[16] = FOLFOX experiment, 1.5 uM, + TTFields 150 kHz 1.6 V/cm
[17] = FOLFOX experiment, 1.5 uM, no TTFields

For `O=c1[nH]cc(F)c(=O)[nH]1` [5-FU, 5-fluorouracil], the “AnnV− 7AAD− cell fraction” value ([1]; 4.5 uM, no TTFields) was 87.28%, the “AnnV+ 7AAD+ cell fraction” value [1, 5] was 14.45% and the “AnnV+ 7AAD− cell fraction” value [1, 5] was 8.70%. The “AnnV− 7AAD+ cell fraction” value [1, 5] was 2.63%, the “AnnV− 7AAD− cell fraction” value [1, 5] was 74.20% and the “AnnV+ 7AAD+ cell fraction” value ([1]; 13.5 uM, no TTFields) was 8.45%. For the same compound, the “AnnV+ 7AAD− cell fraction” value ([1]; 13.5 uM, no TTFields) was 6.20%, the “AnnV− 7AAD+ cell fraction” value ([1]; 13.5 uM, no TTFields) was 0.90% and the “AnnV− 7AAD− cell fraction” value ([1]; 13.5 uM, no TTFields) was 84.45%. The “AnnV+ 7AAD+ cell fraction” value [1, 6] was 10.3%, the “AnnV+ 7AAD− cell fraction” value [1, 6] was 7.3% and the “AnnV− 7AAD+ cell fraction” value [1, 6] was 1.7%. The “AnnV− 7AAD− cell fraction” value [1, 6] was 80.8%, the “AnnV+ 7AAD+ cell fraction” value [1, 7] was 4.3% and the “AnnV+ 7AAD− cell fraction” value [1, 7] was 4.8%. For the same compound, the “AnnV− 7AAD+ cell fraction” value [1, 7] was 1.8%, the “AnnV− 7AAD− cell fraction” value [1, 7] was 89.1% and the colonies count [2, 8] was 50 % from control. The colonies count ([2]; 1.5 uM, no TTFields) was 83 % from control, the colonies count [2, 9] was 38 % from control and the colonies count ([2]; 4.5 uM, no TTFields) was 55 % from control. The colonies count [2, 10] was 8 % from control, the colonies count ([2]; 13.5 uM, no TTFields) was 9 % from control and the colonies count [2, 11] was 1 % from control. The colonies count ([2]; 40 uM, no TTFields) was 2 % from control, the “colonies number (clonogenic effect and overall effect), drug + TTFields compared to drug alone” value ([2]; Two-way ANOVA P<0.001) was “significant reduction in colonies number” and the “elevation in percent of cells that undergo apoptosis, drug + TTFields compared to drug alone” value [3] was “higher”. The “AnnV+ 7AAD+ cell fraction” value [3, 12] was 19.12%, the “AnnV+ 7AAD− cell fraction” value [3, 12] was 17.49% and the “AnnV− 7AAD+ cell fraction” value [3, 12] was 2.24%. For the same compound, the “AnnV− 7AAD− cell fraction” value [3, 12] was 61.16%, the “AnnV+ 7AAD+ cell fraction” value ([3]; 1.5 nM, no TTFields) was 11.98% and the “AnnV+ 7AAD− cell fraction” value ([3]; 1.5 nM, no TTFields) was 11.44%. For the same compound, the “AnnV− 7AAD+ cell fraction” value ([3]; 1.5 nM, no TTFields) was 1.95%, the “AnnV− 7AAD− cell fraction” value ([3]; 1.5 nM, no TTFields) was 74.64% and the “AnnV+ 7AAD+ cell fraction” value [3, 13] was 20.44%. For the same compound, the “AnnV+ 7AAD− cell fraction” value [3, 13] was 13.34%, the “AnnV− 7AAD+ cell fraction” value [3, 13] was 4.25% and the “AnnV− 7AAD− cell fraction” value [3, 13] was 61.98%. The “AnnV+ 7AAD+ cell fraction” value ([3]; 4.5 nM, no TTFields) was 11.92%, the “AnnV+ 7AAD− cell fraction” value ([3]; 4.5 nM, no TTFields) was 11.00% and the “AnnV− 7AAD+ cell fraction” value ([3]; 4.5 nM, no TTFields) was 3.59%. For the same compound, the “AnnV− 7AAD− cell fraction” value ([3]; 4.5 nM, no TTFields) was 73.50%, the “AnnV+ 7AAD+ cell fraction” value [3, 14] was 17.18% and the “AnnV+ 7AAD− cell fraction” value [3, 14] was 16.21%. For the same compound, the “AnnV− 7AAD+ cell fraction” value [3, 14] was 2.01%, the “AnnV− 7AAD− cell fraction” value [3, 14] was 64.61% and the “AnnV+ 7AAD+ cell fraction” value ([3]; 13.5 nM, no TTFields) was 11.72%. The “AnnV+ 7AAD− cell fraction” value ([3]; 13.5 nM, no TTFields) was 12.44%, the “AnnV− 7AAD+ cell fraction” value ([3]; 13.5 nM, no TTFields) was 2.22% and the “AnnV− 7AAD− cell fraction” value ([3]; 13.5 nM, no TTFields) was 73.64%. For the same compound, the “AnnV+ 7AAD+ cell fraction” value [3, 15] was 21.25%, the “AnnV+ 7AAD− cell fraction” value [3, 15] was 11.40% and the “AnnV− 7AAD+ cell fraction” value [3, 15] was 3.58%. The “AnnV− 7AAD− cell fraction” value [3, 15] was 63.76%, the “AnnV+ 7AAD+ cell fraction” value ([3]; 40 nM, no TTFields) was 12.48% and the “AnnV+ 7AAD− cell fraction” value ([3]; 40 nM, no TTFields) was 10.55%. For the same compound, the “AnnV− 7AAD+ cell fraction” value ([3]; 40 nM, no TTFields) was 3.42%, the “AnnV− 7AAD− cell fraction” value ([3]; 40 nM, no TTFields) was 73.55% and the “AnnV+ 7AAD+ cell fraction” value [3, 16] was 32.59%. For the same compound, the “AnnV+ 7AAD− cell fraction” value [3, 16] was 16.09%, the “AnnV− 7AAD+ cell fraction” value [3, 16] was 1.39% and the “AnnV− 7AAD− cell fraction” value [3, 16] was 49.94%. The “AnnV+ 7AAD+ cell fraction” value [3, 17] was 22.22%, the “AnnV+ 7AAD− cell fraction” value [3, 17] was 11.36% and the “AnnV− 7AAD+ cell fraction” value [3, 17] was 0.96%. For the same compound, the “AnnV− 7AAD− cell fraction” value [3, 17] was 65.47%, the “overall effect (colonies count multiplying the cytotoxic effect)” value [4, 8] was 24 % from control and the “overall effect (colonies count multiplying the cytotoxic effect)” value ([4]; 1.5 uM, no TTFields) was 58 % from control. The “overall effect (colonies count multiplying the cytotoxic effect)” value [4, 9] was 18 % from control, the “overall effect (colonies count multiplying the cytotoxic effect)” value ([4]; 4.5 uM, no TTFields) was 34 % from control and the “overall effect (colonies count multiplying the cytotoxic effect)” value [4, 10] was 3 % from control. For the same compound, the “overall effect (colonies count multiplying the cytotoxic effect)” value ([4]; 13.5 uM, no TTFields) was 4 % from control, the “overall effect (colonies count multiplying the cytotoxic effect)” value [4, 11] was 0 % from control and the “overall effect (colonies count multiplying the cytotoxic effect)” value ([4]; 40 uM, no TTFields) was 0 % from control.
